In ChEMBL document CHEMBL3352542, “Synthesis, biological evaluation and molecular modeling study of 2-(1,3,4-thiadiazolyl-thio and 4-methyl-thiazolyl-thio)-quinazolin-4-ones as a new class of DHFR inhibitors” (Bioorg Med Chem Lett, 2014):
The source made the active and inactive calls. The calls are words filed in the database; no cut-off is given here.

Legend:
SR = experiment: Growth inhibition of human SR cells at 10 uM after 48 hrs; format: functional
A549 = experiment: Growth inhibition of human A549 cells at 10 uM after 48 hrs; format: functional
MDA-MB-468 = experiment: Growth inhibition of human MDA-MB-468 cells at 10 uM after 48 hrs; format: functional
HL-60(TB) = experiment: Growth inhibition of human HL-60(TB) cells at 10 uM after 48 hrs; format: functional
Staphylococcus aureus [1] = experiment: Antimicrobial activity against Staphylococcus aureus assessed as inhibition zone at 200 ug/disk after 24 hrs by disc-diffusion method; format: functional; settings: read-out: IZ
NCI-H226 = experiment: Growth inhibition of human NCI-H226 cells at 10 uM after 48 hrs; format: functional
Escherichia coli [2] = experiment: Antimicrobial activity against Escherichia coli assessed as inhibition zone at 200 ug/disk after 24 hrs by disc-diffusion method; format: functional; settings: read-out: IZ
KM12 = experiment: Growth inhibition of human KM12 cells at 10 uM after 48 hrs; format: functional
K562 = experiment: Growth inhibition of human K562 cells at 10 uM after 48 hrs; format: functional
SF-539 = experiment: Growth inhibition of human SF539 cells at 10 uM after 48 hrs; format: functional
HOP-62 = experiment: Growth inhibition of human HOP62 cells at 10 uM after 48 hrs; format: functional
Escherichia coli [3] = experiment: Antimicrobial activity against Escherichia coli assessed as inhibition of visible growth after 24 hrs by disc-diffusion method; format: functional, organism-based
PC-3 = experiment: (§1) Growth inhibition of human PC3 cells at 10 uM after 48 hrs; format: functional
RXF 393 = experiment: Growth inhibition of human RXF393 cells at 10 uM after 48 hrs; format: functional
Dihydrofolate reductase = molecular target: T1, Dihydrofolate reductase (Bos taurus, UniProt P00376); experiment: Inhibition of bovine liver DHFR
T1 sequence (P00376 whole entry): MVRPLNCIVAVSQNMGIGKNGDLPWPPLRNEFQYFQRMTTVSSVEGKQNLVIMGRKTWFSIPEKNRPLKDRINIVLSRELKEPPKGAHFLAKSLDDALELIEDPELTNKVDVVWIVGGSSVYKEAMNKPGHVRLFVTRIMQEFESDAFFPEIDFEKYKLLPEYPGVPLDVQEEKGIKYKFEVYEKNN

MOLT-4 = experiment: Growth inhibition of human MOLT4 cells at 10 uM after 48 hrs; format: functional
OVCAR-4 = experiment: Growth inhibition of human OVCAR4 cells at 10 uM after 48 hrs; format: functional
SF-295 = experiment: (§2) Growth inhibition of human SF295 cells at 10 uM after 48 hrs; format: functional
Bacillus subtilis [4] = experiment: Antimicrobial activity against Bacillus subtilis assessed as inhibition zone at 200 ug/disk after 24 hrs by disc-diffusion method; format: functional; settings: read-out: IZ
HCT-15 = experiment: Growth inhibition of human HCT15 cells at 10 uM after 48 hrs; format: functional
SK-MEL-5 = experiment: Growth inhibition of human SK-MEL-5 cells at 10 uM after 48 hrs; format: functional
HCT-116 = experiment: Growth inhibition of human HCT116 cells at 10 uM after 48 hrs; format: functional
UACC-62 = experiment: Growth inhibition of human UACC62 cells at 10 uM after 48 hrs; format: functional
RPMI-8226 = experiment: Growth inhibition of human RPMI8226 cells at 10 uM after 48 hrs; format: functional
SK-MEL-28 = experiment: Growth inhibition of human SK-MEL-28 cells at 10 uM after 48 hrs; format: functional, cell-based
HOP-92 = experiment: (§3) Growth inhibition of human HOP92 cells at 10 uM after 48 hrs; format: functional
Malme-3M = experiment: Growth inhibition of human MALME-3M cells at 10 uM after 48 hrs; format: functional
Candida albicans = experiment: Antimicrobial activity against Candida albicans assessed as inhibition zone at 200 ug/disk after 24 hrs by disc-diffusion method; format: functional; settings: read-out: IZ
CAKI-1 = experiment: Growth inhibition of human CAKI-1 cells at 10 uM after 48 hrs; format: functional
786-0 = experiment: Growth inhibition of human 786-0 cells at 10 uM after 48 hrs; format: functional
Staphylococcus aureus [5] = experiment: Antimicrobial activity against Staphylococcus aureus assessed as inhibition of visible growth after 24 hrs by disc-diffusion method; format: functional, organism-based
MDA-MB-231 = experiment: Growth inhibition of human MDA-MB-231 cells at 10 uM after 48 hrs; format: functional
HT-29 = experiment: Growth inhibition of human HT-29 cells at 10 uM after 48 hrs; format: functional
MDA-MB-435 = experiment: Growth inhibition of human MDA-MB-435 cells at 10 uM after 48 hrs; format: functional
UACC-257 = experiment: Growth inhibition of human UACC257 cells at 10 uM after 48 hrs; format: functional
SNB-19 = experiment: Growth inhibition of human SNB19 cells at 10 uM after 48 hrs; format: functional
Hs-578T = experiment: (§4) Growth inhibition of human Hs 578T cells at 10 uM after 48 hrs; format: functional
UO-31 = experiment: (§5) Growth inhibition of human UO31 cells at 10 uM after 48 hrs; format: functional
A498 = experiment: Growth inhibition of human A498 cells at 10 uM after 48 hrs; format: functional
Pseudomonas aeruginosa = experiment: Antimicrobial activity against Pseudomonas aeruginosa assessed as inhibition zone at 200 ug/disk after 24 hrs by disc-diffusion method; format: functional; settings: read-out: IZ
U-251 = experiment: Growth inhibition of human U251 cells at 10 uM after 48 hrs; format: functional
CCRF-CEM = experiment: Growth inhibition of human CCRF-CEM cells at 10 uM after 48 hrs; format: functional
Bacillus subtilis [6] = experiment: Antimicrobial activity against Bacillus subtilis assessed as inhibition of visible growth after 24 hrs by disc-diffusion method; format: functional, organism-based
T47D = experiment: Growth inhibition of human T47D cells at 10 uM after 48 hrs; format: functional
NCI-H522 = experiment: Growth inhibition of human NCI-H522 cells at 10 uM after 48 hrs; format: functional
MCF7 = experiment: Growth inhibition of human MCF7 cells at 10 uM after 48 hrs; format: functional
[7] = as §1; format: functional; settings: PC-3, 48 h, read-out: GI
[8] = as §2; format: functional; settings: SF-295, 48 h, read-out: GI
[9] = as §3; format: functional; settings: HOP-92, 48 h, read-out: GI
[10] = as §4; format: functional; settings: read-out: GI
[11] = as §5; format: functional; settings: UO-31, 48 h, read-out: GI

## Cc1ccc2nc(Sc3nnc(N)s3)n(-c3ccc(Cl)cc3)c(=O)c2c1
SR
  growth inhibition (GI): inactive
A549
  growth inhibition (GI): inactive
MDA-MB-468
  growth inhibition (GI): inactive
HL-60(TB)
  growth inhibition (GI): inactive
Staphylococcus aureus [1]
  zone of inhibition at 200 µg/disc: 24 mm
NCI-H226
  growth inhibition (GI): inactive
Escherichia coli [2]
  zone of inhibition at 200 µg/disc: 18 mm
KM12
  growth inhibition (GI): inactive
K562
  growth inhibition (GI): inactive
SF-539
  growth inhibition (GI): inactive
HOP-62
  growth inhibition (GI): inactive
Escherichia coli [3]
  Activity: Active
PC-3
  growth inhibition (GI): inactive
RXF 393
  growth inhibition (GI): inactive
Dihydrofolate reductase
  IC50: 0.7 µM
MOLT-4
  growth inhibition (GI): inactive
OVCAR-4
  growth inhibition (GI): inactive
SF-295
  growth inhibition (GI): inactive
Bacillus subtilis [4]
  zone of inhibition at 200 µg/disc: 26 mm
HCT-15
  growth inhibition (GI): inactive
SK-MEL-5
  growth inhibition (GI): inactive
HCT-116
  growth inhibition (GI): inactive
UACC-62
  growth inhibition (GI): inactive
RPMI-8226
  growth inhibition (GI): inactive
SK-MEL-28
  growth inhibition (GI): inactive
HOP-92
  growth inhibition (GI): inactive
Malme-3M
  growth inhibition (GI): inactive
Candida albicans
  zone of inhibition at 200 µg/disc: 8 mm
CAKI-1
  growth inhibition (GI): inactive
786-0
  growth inhibition (GI): inactive
Staphylococcus aureus [5]
  Activity: Active
MDA-MB-231
  growth inhibition (GI): inactive
HT-29
  growth inhibition (GI): inactive
MDA-MB-435
  growth inhibition (GI): inactive
UACC-257
  growth inhibition (GI): inactive
SNB-19
  growth inhibition (GI): inactive
Hs-578T
  growth inhibition (GI): inactive
UO-31
  growth inhibition (GI): inactive
A498
  growth inhibition (GI): inactive
Pseudomonas aeruginosa
  zone of inhibition at 200 µg/disc: 12 mm
U-251
  growth inhibition (GI): inactive
CCRF-CEM
  growth inhibition (GI): inactive
Bacillus subtilis [6]
  Activity: Active
T47D
  growth inhibition (GI): inactive
NCI-H522
  growth inhibition (GI): inactive
MCF7
  growth inhibition (GI): inactive

## COc1cc2nc(Sc3nnc(N)s3)n(-c3ccc(Cl)cc3)c(=O)c2cc1OC
SR; read-out: GI
  inhibition of growth at 10 µM: 14.4%
HL-60(TB); HL-60, 48 h, read-out: GI
  inhibition of growth at 10 µM: 31.5%
Staphylococcus aureus [1]
  zone of inhibition at 200 µg/disc: 8 mm
Escherichia coli [2]
  zone of inhibition at 200 µg/disc: 8 mm
K562; K562, 48 h, read-out: GI
  inhibition of growth at 10 µM: 15.3%
[7]
  inhibition of growth at 10 µM: 11.2%
Dihydrofolate reductase
  IC50: 6 µM
[8]
  inhibition of growth at 10 µM: 12.1%
Bacillus subtilis [4]
  zone of inhibition at 200 µg/disc: 8 mm
[9]
  inhibition of growth at 10 µM: 40.9%
Malme-3M; read-out: GI
  inhibition of growth at 10 µM: 12.4%
Candida albicans
  zone of inhibition at 200 µg/disc: 8 mm
CAKI-1; CAKI-1, 48 h, read-out: GI
  inhibition of growth at 10 µM: 12.6%
SNB-19; SNB-19, 48 h, read-out: GI
  inhibition of growth at 10 µM: 11.9%
[10]
  inhibition of growth at 10 µM: 10.9%
[11]
  inhibition of growth at 10 µM: 23.6%
A498; A498, 48 h, read-out: GI
  inhibition of growth at 10 µM: 18.8%
Pseudomonas aeruginosa
  zone of inhibition at 200 µg/disc: 8 mm
U-251; U-251, 48 h, read-out: GI
  inhibition of growth at 10 µM: 11.5%
T47D; read-out: GI
  inhibition of growth at 10 µM: 13.7%
